ChEMBL document CHEMBL1143441, “New classes of Gram-positive selective antibacterials: inhibitors of MRSA and surrogates of the causative agents of anthrax and tuberculosis” (2008)
Values after ≈ are worked out from the molar mass of the structure shown.

What was measured:
Format in all cases: functional
[1] = test system: Staphylococcus aureus; test: Antimicrobial activity against Staphylococcus aureus ATCC 29213 by NCCLS M7-A6 method
[2] = test system: Staphylococcus aureus; test: Antimicrobial activity against methicillin-resistant Staphylococcus aureus MC1 by NCCLS M7-A6 method
[3] = test system: Bacillus cereus; test: Antimicrobial activity against Bacillus cereus by NCCLS M7-A6 method
[4] = test system: Escherichia coli; test: Antimicrobial activity against Escherichia coli by NCCLS M7-A6 method
[5] = test system: Mycolicibacterium smegmatis; test: Antimicrobial activity against Mycobacterium smegmatis by NCCLS M7-A6 method
[6] = test system: Corynebacterium xerosis; test: Antimicrobial activity against Corynebacterium xerosis by NCCLS M7-A6 method
[7] = test system: Corynebacterium diphtheriae; test: Antimicrobial activity against Corynebacterium diphtheriae Tox by NCCLS M7-A6 method
[8] = test system: Corynebacterium pseudodiphtheriticum; test: Antimicrobial activity against Corynebacterium pseudodiphtheriticum by NCCLS M7-A6 method
[9] = test system: Staphylococcus aureus; test: Antimicrobial activity against Staphylococcus aureus ATCC 25923 by NCCLS M7-A6 method
[10] = test system: Staphylococcus aureus; test: Antimicrobial activity against methicillin-resistant Staphylococcus aureus MC2 by NCCLS M7-A6 method
[11] = test system: Enterococcus faecium; test: Antimicrobial activity against vancomycin-resistant Enterococcus faecium 1 by NCCLS M7-A6 method
[12] = test system: Enterococcus faecalis; test: Antimicrobial activity against Enterococcus faecalis ATCC 29212 by NCCLS M7-A6 method
[13] = test system: Listeria monocytogenes; test: Antimicrobial activity against Listeria monocytogenes by NCCLS M7-A6 method
[14] = test system: Streptococcus mitis; test: Antimicrobial activity against Streptococcus mitis by NCCLS M7-A6 method
[15] = test system: Streptococcus agalactiae; test: Antimicrobial activity against Streptococcus agalactiae by NCCLS M7-A6 method
[16] = test system: Streptococcus pyogenes; test: Antimicrobial activity against Streptococcus pyogenes by NCCLS M7-A6 method
[17] = test system: Streptococcus pneumoniae; test: Antimicrobial activity against Streptococcus pneumoniae ATCC 49619 by NCCLS M7-A6 method
[18] = test system: Priestia megaterium; test: Antimicrobial activity against Bacillus megaterium by NCCLS M7-A6 method
[19] = test system: Bacillus subtilis; test: Antimicrobial activity against Bacillus subtilis by NCCLS M7-A6 method
[20] = test system: Bacillus anthracis; test: Antimicrobial activity against Bacillus anthracis Sterne by NCCLS M7-A6 method
[21] = test system: Pseudomonas aeruginosa; test: Antimicrobial activity against Pseudomonas aeruginosa by NCCLS M7-A6 method
[22] = test system: Enterococcus faecium; test: Antimicrobial activity against vancomycin-resistant Enterococcus faecium 14 by NCCLS M7-A6 method

Row | Compound | MIC [1] | MIC [2] | MIC [3] | MIC [4] | MIC [5] | other results
1 | COc1cc(/C=C/c2cccs2)cc(OC)c1 | > 512 µg/mL | > 512 µg/mL | > 512 µg/mL | > 512 µg/mL | > 512 µg/mL | 
2 | COc1cc(O)cc(/C=C/Oc2ccccc2C)c1 | 16 µg/mL (≈ 62.4 µM) | 32 µg/mL (≈ 125 µM) | 64 µg/mL (≈ 250 µM) | > 512 µg/mL | > 128 µg/mL | 
3 | COc1cc(O)cc(/C=C/c2ccsc2)c1 | 32 µg/mL (≈ 138 µM) | 32 µg/mL (≈ 138 µM) | 32 µg/mL (≈ 138 µM) | > 512 µg/mL | 64 µg/mL (≈ 276 µM) | 
4 | COc1cc(/C=C/Oc2ccccc2)cc(OC)c1 | > 512 µg/mL | > 512 µg/mL | > 512 µg/mL | > 512 µg/mL | > 512 µg/mL | 
5 | COc1cc(/C=C/Oc2cccc(C)c2)cc(OC)c1 | > 512 µg/mL | > 512 µg/mL | > 512 µg/mL | > 512 µg/mL | > 512 µg/mL | 
6 | COc1cc(/C=C/Oc2ccc(C)cc2)cc(OC)c1 | > 512 µg/mL | > 512 µg/mL | > 512 µg/mL | > 512 µg/mL | > 512 µg/mL | 
7 | COc1cc(/C=C/Oc2cccc(OC)c2)cc(OC)c1 | > 512 µg/mL | > 512 µg/mL | > 512 µg/mL | > 512 µg/mL | > 512 µg/mL | 
8 | COc1cc(O)cc(O/C=C/c2ccccc2)c1 | 32 µg/mL (≈ 132 µM) | 32 µg/mL (≈ 132 µM) | 64 µg/mL (≈ 264 µM) | > 512 µg/mL | 128 µg/mL (≈ 528 µM) | 
9 | COc1cc(OC)cc(O/C=C/c2ccccc2)c1 | > 512 µg/mL | > 512 µg/mL | > 512 µg/mL | > 512 µg/mL | > 512 µg/mL | 
10 | COc1cc(O)cc(/C=C/Oc2ccccc2)c1 | 32 µg/mL (≈ 132 µM) | 64 µg/mL (≈ 264 µM) | 32 µg/mL (≈ 132 µM) | > 512 µg/mL | 128 µg/mL (≈ 528 µM) | 
11 | COc1cc(O)cc(/C=C/Oc2ccc(C)cc2)c1 | 16 µg/mL (≈ 62.4 µM) | 32 µg/mL (≈ 125 µM) | 64 µg/mL (≈ 250 µM) | > 512 µg/mL | > 128 µg/mL | 
12 | COc1ccc(O/C=C/c2cc(O)cc(OC)c2)cc1 | 16 µg/mL (≈ 58.8 µM) | 64 µg/mL (≈ 235 µM) | 64 µg/mL (≈ 235 µM) | > 512 µg/mL | 128 µg/mL (≈ 470 µM) | 
13 | COc1cc(/C=C/Oc2ccccc2C)cc(OC)c1 | > 512 µg/mL | > 512 µg/mL | > 512 µg/mL | > 512 µg/mL | > 512 µg/mL | 
14 | COc1cc(O)cc(/C=C/Oc2cccc(C)c2)c1 | 16 µg/mL (≈ 62.4 µM) | 32 µg/mL (≈ 125 µM) | 32 µg/mL (≈ 125 µM) | > 512 µg/mL | 64 µg/mL (≈ 250 µM) | 
15 | COc1cc(O)cc(/C=C/Sc2ccccc2)c1 | 16 µg/mL (≈ 61.9 µM) | 32 µg/mL (≈ 124 µM) | 16 µg/mL (≈ 61.9 µM) | > 512 µg/mL | 128 µg/mL (≈ 495 µM) | 
16 | COc1cc(O)cc(/C=C/Oc2cccc(OC)c2)c1 | 16 µg/mL (≈ 58.8 µM) | 64 µg/mL (≈ 235 µM) | 64 µg/mL (≈ 235 µM) | > 512 µg/mL | 128 µg/mL (≈ 470 µM) | 
17 | COc1cc(O)cc(/C=C/c2cccs2)c1 | 16 µg/mL (≈ 68.9 µM) | 32 µg/mL (≈ 138 µM) | 32 µg/mL (≈ 138 µM) | > 512 µg/mL | 128 µg/mL (≈ 551 µM) | 
18 | COc1cc(/C=C/Sc2ccccc2)cc(OC)c1 | > 512 µg/mL | > 512 µg/mL | > 512 µg/mL | > 512 µg/mL | > 512 µg/mL | 
19 | COc1ccc(O/C=C/c2cc(OC)cc(OC)c2)cc1 | > 512 µg/mL | > 512 µg/mL | > 512 µg/mL | > 512 µg/mL | > 512 µg/mL | 
20 | COc1cc(/C=C/c2ccccc2)cc(OC)c1 [3,5-O-DIMETHYLPINOSYLVIN] | > 512 µg/mL | > 512 µg/mL | > 512 µg/mL | > 512 µg/mL | > 512 µg/mL | 
21 | COc1cc(O)cc(/C=C/c2ccccc2)c1 [PINOSYLVIN METHYL ETHER] | 32 µg/mL (≈ 141 µM) | 32 µg/mL (≈ 141 µM) | 16 µg/mL (≈ 70.7 µM) | > 512 µg/mL | 64 µg/mL (≈ 283 µM) | MIC [6]: 16 µg/mL (≈ 70.7 µM); MIC [7]: 32 µg/mL (≈ 141 µM); MIC [8]: 16 µg/mL (≈ 70.7 µM); MIC [9]: 32 µg/mL (≈ 141 µM); MIC [10]: 32 µg/mL (≈ 141 µM); MIC [11]: 16 µg/mL (≈ 70.7 µM); MIC [12]: 16 µg/mL (≈ 70.7 µM); MIC [13]: 32 µg/mL (≈ 141 µM); MIC [14]: 64 µg/mL (≈ 283 µM); MIC [15]: 32 µg/mL (≈ 141 µM); MIC [16]: 16 µg/mL (≈ 70.7 µM); MIC [17]: 8 µg/mL (≈ 35.4 µM); MIC [18]: 64 µg/mL (≈ 283 µM); MIC [19]: 16 µg/mL (≈ 70.7 µM); MIC [20]: 8 µg/mL (≈ 35.4 µM); MIC [21]: > 128 µg/mL; MIC [22]: 16 µg/mL (≈ 70.7 µM)
